Results from paper PMC9814250, “Single step syntheses of (1S)-aryl-tetrahydroisoquinolines by norcoclaurine synthases” (Communications Chemistry, 2020).

Key:
RnCOMT [1] = molecular target: T1, RnCOMT (Rattus norvegicus, UniProt P22734); test: HPLC, O-methylation to C6/C7-OMe-7b; settings: SAM generated in situ (EcMAT, EcMTAN), Mg2+, pH 7.5, 37 °C, 24 h; not enantioselective
T1 construct: gene Comt; recombinant in E. coli BL21(DE3), used as lysate
T1 sequence (P22734 1-264): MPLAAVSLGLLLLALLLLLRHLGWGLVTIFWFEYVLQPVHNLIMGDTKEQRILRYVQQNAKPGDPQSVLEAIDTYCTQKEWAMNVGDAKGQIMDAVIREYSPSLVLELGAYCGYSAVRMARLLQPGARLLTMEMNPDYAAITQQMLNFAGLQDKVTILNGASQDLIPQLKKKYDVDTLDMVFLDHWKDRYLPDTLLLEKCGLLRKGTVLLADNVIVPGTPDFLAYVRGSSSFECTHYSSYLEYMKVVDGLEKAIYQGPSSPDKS

MxSafC [2] = molecular target: T2, MxSafC (Myxococcus xanthus, UniProt Q50859); test: HPLC, O-methylation to C6-OMe-7b; type: biochemical; settings: SAM generated in situ (EcMAT, EcMTAN), Mg2+, pH 7.5, 37 °C, 24 h; selective for (S)
T2 construct: gene safC; recombinant in E. coli BL21(DE3), His-trap purified

MxSafC [3] = molecular target: T2, MxSafC; test: HPLC, O-methylation to C6-OMe-7a; type: biochemical; settings: SAM generated in situ (EcMAT, EcMTAN), Mg2+, pH 7.5, 37 °C, 24 h; selective for (S)
RnCOMT [4] = molecular target: T1, RnCOMT; test: HPLC, O-methylation to C6-OMe product; settings: SAM generated in situ (EcMAT, EcMTAN), Mg2+, pH 7.5, 37 °C, 24 h; not enantioselective

Structure (SMILES)	HPLC, O-methylation to C6/C7-OMe-7b (RnCOMT [1])	HPLC, O-methylation to C6-OMe-7b (MxSafC [2])	HPLC, O-methylation to C6-OMe-7a (MxSafC [3])	HPLC, O-methylation to C6-OMe product (RnCOMT [4])
Oc1cc2c(cc1O)[C@H](c1ccccc1)NCC2 [5b, (S)-5b]	C6:C7-OMe-7b was observed by ^1H-NMR when 5b was used as the substrate	MxSafC was found to be selective towards both (S)-5a and (S)-5b		
Oc1cc2c(cc1O)[C@H](C1CCCCC1)NCC2 [5a, (S)-5a]			MxSafC was found to be selective towards both (S)-5a and (S)-5b	using 5a as the substrate, gave remarkable regioselectivity
